In patent US20210000814A1, “RIMEGEPANT FOR CGRP RELATED DISORDERS” (Biohaven Pharmaceutical Holding Company Ltd., priority 2018, published 2021):

Assay: Pooled safety data (AEs, liver function tests) of Studies 301, 302 and 303
Format: in vivo, human
[1] = pooled 301, 302, 303, n = 1,771

## N[C@@H]1c2cccnc2[C@H](OC(=O)N2CCC(n3c(=O)[nH]c4ncccc43)CC2)CC[C@H]1c1cccc(F)c1F [Rimegepant, [(55,65,9R)-5-amino-6-(2,3-difluorophenyl)-6,7,8,9-tetrahydro-5H-cyclohepta[b]pyridin-9-yl]4-(2-oxo-3H-imidazo[4,5-b]pyridin-1-yl)piperidine-1-carboxylate]
Across Studies 301, 302 and 303
  bilirubin elevations > 2x ULN: no patients
Pooled 301, 302, 303, AST elevation deemed not drug-related
  ALT or AST >5x ULN, number of patients: 1
[1]
  ALT or AST >3x ULN, number of patients: 2
  ALT or AST >3x ULN, percent: (0.1%)
  ALT or AST >5x ULN, percent: (0.06%)
  ALT or AST >10x ULN, number of patients: 0
  ALT or AST >20x ULN, number of patients: 0
  ALT or AST >ULN, number of patients: 48
  ALT or AST >ULN, percent: (2.7%)
